# Key:
# [1] = tested on: pressor reaction induced by 310 ng of angiotensin I; assay: Intraduodenal administration to anesthetized rats, ED50; format: in vivo, rat
# Experimental: (§1) 1. Intravenous administration to anesthetized rats, 50% inhibition of the pressor reaction induced by 310 ng of angiotensin I, 30 minutes after administration of the dose . . . ED50
# 2. Intraduodenal administration to anesthetized rats
# [2] = tested on: pressor reaction induced by 310 ng of angiotensin I; assay: Intravenous administration to anesthetized rats, 50% inhibition of the pressor reaction induced by 310 ng of angiotensin I; format: in vivo; settings: Rattus norvegicus, 0.5 h, 30 minutes after administration of the dose
# Experimental: as §1
# [3] = tested on: pressor reaction triggered off by intravenous administration of angiotensin I; assay: Oral administration to conscious rats, inhibition of the pressor reaction triggered off by intravenous angiotensin I; format: in vivo, rat; settings: 1 mg/kg
# [4] = Rattus norvegicus, read-out: ED50
Compound,ED50 [1] [mg/kg],"ED50 [1, 4] [mg/kg]",ED50 [2] [mg/kg],duration of the 90% inhibition of the pressor reaction [3],inhibition of the pressor reaction triggered off by intravenous administration of angiotensin I [3] [%]
"C[C@H](N[C@@H](CC(=O)c1ccccc1)C(=O)OCc1ccccc1)C(=O)N1C(C(=O)O)CC2CCCC21 (relative stereo) [X=C6H5, Y=--, Z=O, R1=CH3, R2=C7H7, N-(1-S-Carbobenzyloxy-3-oxo-3-phenyl-propyl)-S-alanyl-2-cis,endo-azabicyclo-[3.3.0]-octane-3-carboxylic acid]",0.25,–,–,–,–
"CCOC(=O)[C@H](CC(=O)c1ccccc1)N[C@@H](C)C(=O)N1[C@H](C(=O)O)C[C@@H]2CCC[C@@H]21 [X=C6H5, Y=--, Z=O, R1=CH3, R2=C2H5, N-(1-S-carbethoxy-3-oxo-3-phenyl-propyl)-S-alanyl-cis,endo-2-azabicyclo-[3.3.0]-octane-3-S-carboxylic acid]",–,0.28,–,–,–
"C[C@H](N[C@@H](CCc1ccccc1)C(=O)O)C(=O)N1[C@H](C(=O)O)C[C@@H]2CCC[C@@H]21 [X=C6H5, Y=H, Z=H, R1=CH3, R2=H, N-(1-S-Carboxy-3-phenyl-propyl)-S-alanyl-cis,endo-2-azabicyclo-[3.3.0]-octane-3-S-carboxylic acid]",–,0.6,0.0027,–,–
"CCOC(=O)[C@H](CCc1ccccc1)N[C@@H](C)C(=O)N1[C@H](C(=O)O)C[C@@H]2CCC[C@@H]21 [X=C6H5, Y=H, Z=H, R1=CH3, R2=C2H5, N-(1-S-Carbethoxy-3-phenyl-propyl)-S-alanyl-cis,endo-2-azabicyclo-[3.3.0]-octane-3-S-carboxylic acid]",–,0.05,0.0083,over 6 hours,90

# From patent publication US5061722A, “Cis, endo-2-azabicyclo-[3.3.0]-octane-3-carboxylic acids, a process for their preparation, agents containing these compounds and their use” (Hoechst AG, priority 1981, dated 1991)
